Results taken from patent US20240041976A1, “COMPOSITION AND USE” (priority 2020, published 2024).
No end group written: not given here.

B1: Garvicin KS: three-peptide leaderless bacteriocin (GarA, GarB, GarC; SEQ ID NO:6-8), peptides synthesized (peptide, listed as Lactococcus garvieae)
chain 1: MGAIIKAGAKIVGKGVLGGGASWLGWNVGEKIWK
chain 2: MGAIIKAGAKIIGKGLLGGAAGGATYGGLKKIFG
chain 3: MGAIIKAGAKIVGKGALTGGGVWLAEKLFGGK

Legend:
[1] = system: S. haemolyticus 4070; experiment: microbe, parasite or virus in culture
Description: Growth inhibition assays were performed in 96-well microtiter plates as described previously (Chi and Holo, 2018, supra). Briefly, 135 μl of TSB were dispensed in each well of a microtiter plate (according to the number of bacterial strains tested) except in the wells of the first row. The antimicrobials were diluted in TSB to working concentrations in a final volume of 285 μl and dispensed in the wells of the first row. The working concentrations were 100 μg/μl for garvicin KS, 10 μg/μl for micrococcin P1 and 1 mg/ml for penicillin G. From the first row, 150 μl of the antimicrobials were then serially diluted (two-fold dilutions) in a sequential fashion until the last row of the plate. Finally, 15 μl of a fresh O/N culture of each strain were added in the appropriate wells to reach a final volume of 150 μl in each well. The plates were then incubated at 37° C. for 24 h. The growth inhibition was expressed as minimum inhibitory concentration (MIC50), which refers to the minimum concentration of the antimicrobial needed to reduce at least 50% of the microbial growth compared to the untreated control. The MIC50 was assessed by optical density readings at 600 nm (O.D.600).
Synergistic interactions between antimicrobials were determined using the fractional inhibition concentration (FIC). The FIC values were calculated as follows: the sum of the FIC =FICa+FICb+FICc, where the FICa means MIC of A in combination/MIC of A alone, FICb means MIC of B in combination/MIC of B, and FICc means MIC of C in combination/MIC of C alone. Effects were considered as synergistic if FIC was ≤0.5 for two components mixture and ≤0.75 for three components mixture.
Bacteriocins and antimicrobial assays. […] These bacteriocins were all solubilized in 0.1% (vol/vol) trifluoracetic acid (TFA; Sigma-Aldrich). […] Cell growth inhibition assays and antimicrobial synergy determination was performed in line with Example 1.
To investigate whether there was synergy between the three bacteriocins (K1-EJ, GarKS and MP1), a checkboard antimicrobial assay was performed. The selected strains were treated for 5, 24 and 48 h with a range of concentrations of K1-EJ, GarKS and MP1 alone or in different combinations.

[2] = system: S. aureus LMG3258; experiment: AAMP assay (MIC), single components and formulation mixture; type: cell-based, Staphylococcus aureus; settings: for MIC: Staphylococcus aureus, LMG3258, 24 h, read-out: MIC, single component
Description: (§1) Antimicrobial activity was measured using the AAMP assay (Wiegand et al., 2008, Nat. Protoc., Vol. 3(2), p 163-175).
(§2) Three-component synergy was assessed by mixing the three components (100 μg of PenG, 50 μg of GarKS and 2.5 μg of MP1) into one well of a microtiter plate, compared with activity of individual antimicrobials on the same plate. The fractional inhibition concentration (FIC) which was used to define synergy was calculated as set forth in Example 1.

[3] = system: S. aureus LMG3314; experiment: as above; type: cell-based, Staphylococcus aureus; settings: for MIC: Staphylococcus aureus, LMG3314, 24 h, read-out: MIC, single component
Description: as §1, §2

[4] = system: S. aureus LMG3271; experiment: as above; type: cell-based, Staphylococcus aureus; settings: for MIC: Staphylococcus aureus, LMG3271, 24 h, read-out: MIC, single component
Description: as §1, §2

[5] = system: S. aureus LMG3265; experiment: as above; type: cell-based, Staphylococcus aureus; settings: for MIC: Staphylococcus aureus, LMG3265, 24 h, read-out: MIC, single component
Description: as §1, §2

[6] = system: S. aureus LMG3026; experiment: as above; type: cell-based, Staphylococcus aureus; settings: for MIC: Staphylococcus aureus, LMG3026, 24 h, read-out: MIC, single component
Description: as §1, §2

[7] = system: S. aureus LMG3307; experiment: as above; type: cell-based, Staphylococcus aureus; settings: for MIC: Staphylococcus aureus, LMG3307, 24 h, read-out: MIC, single component
Description: as §1, §2

[8] = system: S. aureus LMG3328; experiment: as above; type: cell-based, Staphylococcus aureus; settings: for MIC: Staphylococcus aureus, LMG3328, 24 h, read-out: MIC, single component
Description: as §1, §2

[9] = system: S. aureus LMG3266; experiment: as above; type: cell-based, Staphylococcus aureus; settings: for MIC: Staphylococcus aureus, LMG3266, 24 h, read-out: MIC, single component
Description: as §1, §2

[10] = system: S. aureus LMG3264; experiment: as above; type: cell-based, Staphylococcus aureus; settings: for MIC: Staphylococcus aureus, LMG3264, 24 h, read-out: MIC, single component
Description: as §1, §2

[11] = system: S. aureus LMG3322; experiment: as above; type: cell-based, Staphylococcus aureus; settings: for MIC: Staphylococcus aureus, LMG3322, 24 h, read-out: MIC, single component
Description: as §1, §2

[12] = system: S. aureus LMG3263; experiment: as above; type: cell-based, Staphylococcus aureus; settings: for MIC: Staphylococcus aureus, LMG3263, 24 h, read-out: MIC, single component
Description: as §1, §2

[13] = system: S. aureus LMG3255; experiment: as above; type: cell-based, Staphylococcus aureus; settings: for MIC: Staphylococcus aureus, LMG3255, 24 h, read-out: MIC, single component
Description: as §1, §2

[14] = system: S. aureus LMG3242; experiment: as above; type: cell-based, Staphylococcus aureus; settings: for MIC: Staphylococcus aureus, LMG3242, 24 h, read-out: MIC, single component
Description: as §1, §2

[15] = system: MRSA; experiment: MIC of the mixture dissolved in 5% HPC; type: cell-based, Staphylococcus aureus; settings: for MIC: Staphylococcus aureus, MRSA, read-out: final MIC of the component in the mixture in HPC
Description: as §1
We also tested hydroxypropyl cellulose (HPC) which is a more hydrophilic polymer and commonly used for topical and oral pharmaceutical preparations (Alvarez-Lorenzo et al., 1999, Int. J. Pharmaceutics, Vol. 180(1), p 91-103).

[16] = 4070, 24 h, K1-EJ + GarKS + MP1
[17] = 4070, 48 h, K1-EJ + GarKS + MP1

Molecule | MIC of the component in combination ([1]; 4070, 5 h, GarKS + MP1) [µg/mL] | MIC of the component in combination ([1]; 4070, 5 h, K1-EJ + GarKS + MP1) [µg/mL] | MIC of the component in combination ([1]; 4070, 5 h, K1-EJ + MP1) [µg/mL] | MIC of the component in combination ([1]; 4070, 24 h, GarKS + MP1) [µg/mL] | MIC of the component in combination [1, 16] [µg/mL] | MIC of the component in combination ([1]; 4070, 24 h, K1-EJ + MP1) [µg/mL] | MIC of the component in combination ([1]; 4070, 48 h, GarKS + MP1) [µg/mL] | MIC of the component in combination [1, 17] [µg/mL] | MIC of the component in combination ([1]; 4070, 48 h, K1-EJ + MP1) [µg/mL] | MIC [2] [µg/mL] | MIC [3] [µg/mL] | MIC [4] [µg/mL] | MIC [5] [µg/mL] | MIC [6] [µg/mL] | MIC [7] [µg/mL] | MIC [8] [µg/mL] | MIC [9] [µg/mL] | MIC [10] [µg/mL] | MIC [11] [µg/mL] | MIC [12] [µg/mL] | also measured
C/C=C(\NC(=O)c1csc(-c2csc(-c3ccc4c(n3)-c3csc(n3)[C@H]([C@@H](C)O)NC(=O)c3csc(n3)[C@H](C(C)C)NC(=O)c3csc(n3)/C(=C/C)NC(=O)[C@H]([C@@H](C)O)NC(=O)c3csc-4n3)n2)n1)C(=O)NC[C@@H](C)O [MP1, micrococcin P1] | 0.02 | 0.032 | 0.02 | 0.33 | 0.28 | 0.28 | 0.63 | 0.58 | 0.6 | 1.8 | 0.4 | > 1.8 | 1.8 | > 1.8 | 0.9 | 0.9 | > 1.8 | > 1.8 | > 1.8 | 1.8 | MIC ([1]; Staphylococcus haemolyticus, 4070, 5 h): 0.02 µg/mL; MIC ([1]; Staphylococcus haemolyticus, 4070, 24 h): 0.33 µg/mL; MIC ([1]; Staphylococcus haemolyticus, 4070, 48 h): 0.13 µg/mL; MIC [13]: > 1.8 µg/mL; MIC [14]: 0.4 µg/mL; MIC [15]: 0.04 µg/mL
CC1(C)S[C@@H]2[C@H](NC(=O)Cc3ccccc3)C(=O)N2[C@H]1C(=O)O [Penicillin G] |  |  |  |  |  |  |  |  |  | 64 | < 0.24 | < 0.24 | 125 | > 2500 | < 0.24 | < 0.24 | 64 | 4 | < 0.24 | 125 | MIC [13]: < 0.24 µg/mL; MIC [14]: 0.24 µg/mL; MIC [15]: 2 µg/mL
MKFKFNPTGTIVKKLTQYEINWYKQQYGRYPWERPVA [Hybrid K1-EJ] |  | 0.32 | 0.2 |  | 2.8 | 2.8 |  | 5.8 | 6 |  |  |  |  |  |  |  |  |  |  |  | MIC ([1]; 4070, 5 h): 0.78 µg/mL; MIC ([1]; 4070, 24 h): >100 µg/mL; MIC ([1]; 4070, 48 h): >100 µg/mL; MIC of the component in combination ([1]; 4070, 5 h, K1-EJ + GarKS): 0.72 µg/mL; MIC of the component in combination ([1]; 4070, 24 h, K1-EJ + GarKS): 3.3 µg/mL; MIC of the component in combination ([1]; 4070, 48 h, K1-EJ + GarKS): 6.3 µg/mL
B1 | 0.2 | 0.32 |  | 3.3 | 2.8 |  | 6.3 | 5.8 |  |  |  |  |  |  |  |  |  |  |  |  | MIC of the component in combination ([1]; 4070, 5 h, K1-EJ + GarKS): 0.72 µg/mL; MIC ([1]; 4070, 5 h, individual component): 12 µg/mL; MIC of the component in combination ([1]; 4070, 24 h, K1-EJ + GarKS): 3.3 µg/mL; MIC ([1]; 4070, 24 h, individual component): 48 µg/mL; MIC of the component in combination ([1]; 4070, 48 h, K1-EJ + GarKS): 6.3 µg/mL; MIC ([1]; 4070, 48 h, individual component): 51 µg/mL; MIC, single component ([2]; LMG3258): 32 µg/mL; MIC, single component ([3]; LMG3314): 32 µg/mL; MIC, single component ([4]; LMG3271): 32 µg/mL; MIC, single component ([5]; LMG3265): 16 µg/mL; MIC, single component ([6]; LMG3026): 16 µg/mL; MIC, single component ([7]; LMG3307): 32 µg/mL; MIC, single component ([8]; LMG3328): 32 µg/mL; MIC, single component ([9]; LMG3266): 32 µg/mL; MIC, single component ([10]; LMG3264): 32 µg/mL; MIC, single component ([11]; LMG3322): 16 µg/mL; MIC, single component ([12]; LMG3263): 16 µg/mL; MIC, single component ([13]; LMG3255): 32 µg/mL; MIC, single component ([14]; LMG3242): 32 µg/mL; final MIC of the component in the mixture in HPC [15]: 2 µg/mL
